Measured values published in the supplement of paper PMC11208160.

Test: recombinant UMI read abundance after kanamycin selection (control-corrected) (log10(CPM+1)); higher = more efficient recombination; extreme values may be limits of the assay; sequences stand for … in AGTGCAGAGAAAATCGGCCAGTTTTCTCTGCCTGCAGTCCGCATGCCGTGGGACCCCTTGGGTTCTAACCTGTTGCCTAGATTTATGCAGCGGACTGCCTTTCTCCCAAAGTGATAAACCGG…AGGTTGGTTTCACT; site = the 11-nt donor
Method in brief: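 Each donor and donor-binding-loop pair was tracked by a 12-nt UMI on a plasmid carrying a promoterless kanamycin gene. With a second plasmid supplying a fixed target and T7-inducible IS621 bridge recombinase, the pool was plated in Escherichia coli on IPTG (0.07 mM) plus kanamycin or unselected. Sequencing of recombinant UMIs across the donor–target junction gave counts expressed as log10(CPM+1) after replicate averaging and control-derived scaling.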
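Note: IS621 bridge recombinase in Escherichia coli cells against a fixed T5 target plasmid.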

| Sequence | recombinant UMI read abundance (log10) |
| --- | --- |
| CATTCGTCATGGACCGGTTTTCCCGGTAATCCGTATTTGGC (site CATTCGTCTGC) | 0.595 |
| CATTGAACATGGACCGGTTTTCCCGGTAATCCGTATTTGCC (site CATTGAACTGG) | 0 |
| CATTGGACATGGACCGGTTTTCCCGGTAATCCGTATTTGAC (site AATTGGACTGT) | 0.565 |
| CATTGGACATGGACCGGTTTTCCCGGTAATCCGTATTTGAC (site CATTGGACTGT) | 1.96 |
| CATTGGACATGGACCGGTTTTCCCGGTAATCCGTATTTGAC (site GATTGGACTGT) | 0 |
| CATTGGACATGGACCGGTTTTCCCGGTAATCCGTATTTGAC (site TATTGGACTGT) | 0 |
| CCAAAACCATGGACCGGTTTTCCCGGTAATCCGTATTTGAG (site CCAAAACCTCT) | 0 |
| CCAACTTCATGGACCGGTTTTCCCGGTAATCCGTATTTGTA (site CCAACTTCTTA) | 0.301 |
| CCAAGCGCATGGACCGGTTTTCCCGGTAATCCGTATTTGTA (site CCAAGCGCTTA) | 1.3 |
| CCAATCACATGGACCGGTTTTCCCGGTAATCCGTATTTGTT (site CCAATCACTAA) | 0.84 |
| CCACGAACATGGACCGGTTTTCCCGGTAATCCGTATTTGTC (site ACACGAACTGA) | 0 |
| CCACGAACATGGACCGGTTTTCCCGGTAATCCGTATTTGTC (site CCACGAACTGA) | 0.774 |
| CCACGAACATGGACCGGTTTTCCCGGTAATCCGTATTTGTC (site GCACGAACTGA) | 0 |
| CCACGAACATGGACCGGTTTTCCCGGTAATCCGTATTTGTC (site TCACGAACTGA) | 0 |
| CCAGCAGCATGGACCGGTTTTCCCGGTAATCCGTATTTGTC (site CCAGCAGCTGA) | 0.4 |
| CCAGCATCATGGACCGGTTTTCCCGGTAATCCGTATTTGCT (site CCAGCATCTAG) | 0.0975 |
| CCAGCATCATGGACCGGTTTTCCCGGTAATCCGTATTTGCT (site CGATCATCTAG) | 0 |

| Sequence | recombinant UMI read abundance (log10) |
| --- | --- |
| CCAGCTGCATGGACCGGTTTTCCCGGTAATCCGTATTTGCC (site CCAGCTGCTGG) | 1.26 |
| CCAGGACCATGGACCGGTTTTCCCGGTAATCCGTATTTGGG (site CAAGGACCTCC) | 0.0304 |
| CCAGGACCATGGACCGGTTTTCCCGGTAATCCGTATTTGGG (site CCAGGACCTCC) | 0.00761 |
| CCAGGACCATGGACCGGTTTTCCCGGTAATCCGTATTTGGG (site CGAGGACCTCC) | 0 |
| CCAGGACCATGGACCGGTTTTCCCGGTAATCCGTATTTGGG (site CTAGGACCTCC) | 0.00678 |
| CCAGGTCCATGGACCGGTTTTCCCGGTAATCCGTATTTGCA (site CCAGGTCCTTG) | 0.421 |
| CCAGGTCCATGGACCGGTTTTCCCGGTAATCCGTATTTGCA (site CCCGGTCCTTG) | 0 |
| CCAGGTCCATGGACCGGTTTTCCCGGTAATCCGTATTTGCA (site CCGGGTCCTTG) | 0 |
| CCAGGTCCATGGACCGGTTTTCCCGGTAATCCGTATTTGCA (site CCTGGTCCTTG) | 0 |
| CCAGGTGCATGGACCGGTTTTCCCGGTAATCCGTATTTGAG (site CCAGGTGCTAT) | 0.721 |
| CCAGGTGCATGGACCGGTTTTCCCGGTAATCCGTATTTGAG (site CCAGGTGCTCT) | 0.843 |
| CCAGGTGCATGGACCGGTTTTCCCGGTAATCCGTATTTGAG (site CCAGGTGCTGT) | 0 |
| CCAGGTGCATGGACCGGTTTTCCCGGTAATCCGTATTTGAG (site CCAGGTGCTTT) | 0.424 |
| CCAGGTTCATGGACCGGTTTTCCCGGTAATCCGTATTTGAT (site CCAGGTACTAT) | 0.00235 |
| CCAGGTTCATGGACCGGTTTTCCCGGTAATCCGTATTTGAT (site CCAGGTCCTAT) | 0.00776 |
| CCAGGTTCATGGACCGGTTTTCCCGGTAATCCGTATTTGAT (site CCAGGTGCTAT) | 0 |
| CCAGGTTCATGGACCGGTTTTCCCGGTAATCCGTATTTGAT (site CCAGGTTCTAT) | 0.602 |
